In ChEMBL document CHEMBL1201862, “PubChem BioAssay data set” (2004):
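Dose response: 5 concentrations. Exposure: 48 h. Format: 96-well plates. Endpoint: linear interpolation; highest concentration if not reached. The concentration for 50% growth inhibition is given as GI50.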 Active and inactive are the calls of the source. No stated cut-off is given here; in the data, active = GI50 up to about 1.1 µM and inactive = higher.

Key:
Experiment in all cases: DTP human tumour cell line panel, 48 h
[1] = tested on: SK-MEL-28
[2] = tested on: SF-268
[3] = tested on: OVCAR-4
[4] = tested on: IGROV-1
[5] = tested on: T47D
[6] = tested on: NCI-H460
[7] = tested on: UO-31
[8] = tested on: SW-620
[9] = tested on: MDA-N
[10] = tested on: MOLT-4
[11] = tested on: HL-60
[12] = tested on: MDA-MB-231
[13] = tested on: SNB-19
[14] = tested on: Malme-3M
[15] = tested on: RXF 393
[16] = tested on: OVCAR-3
[17] = tested on: Hs-578T
[18] = tested on: M14
[19] = tested on: SK-MEL-5
[20] = tested on: NCI-H23
[21] = tested on: A498
[22] = tested on: HT-29
[23] = tested on: SF-295
[24] = tested on: K562
[25] = tested on: SN12C
[26] = tested on: ACHN
[27] = tested on: DU-145
[28] = tested on: SK-MEL-2
[29] = tested on: PC-3
[30] = tested on: RPMI-8226
[31] = tested on: U-251
[32] = tested on: UACC-257
[33] = tested on: TK-10
[34] = tested on: SF-539
[35] = tested on: HCC 2998
[36] = tested on: NCI/ADR-RES
[37] = tested on: 786-0
[38] = tested on: NCI-H522
[39] = tested on: LOX IMVI
[40] = tested on: OVCAR-5
[41] = tested on: HCT-116
[42] = tested on: CAKI-1
[43] = tested on: OVCAR-8
[44] = tested on: KM12
[45] = tested on: SR
[46] = tested on: HOP-62
[47] = tested on: SK-OV-3
[48] = tested on: SNB-75
[49] = tested on: HCT-15
[50] = tested on: EKVX
[51] = tested on: UACC-62
[52] = tested on: MDA-MB-435
[53] = tested on: A549
[54] = tested on: MCF7
[55] = tested on: CCRF-CEM
[56] = tested on: BT-549
[57] = tested on: HOP-92
[58] = tested on: COLO 205
[59] = tested on: NCI-H226

Measured: GI50

O=NN(Cc1ccc(Cl)cc1)C(C(=O)O)c1ccccc1 (stereo not drawn)
inactive: [1] > 100 µM | [2] > 100 µM | [3] > 100 µM | [4] > 100 µM | [5] > 100 µM | [6] > 100 µM | [7] > 100 µM | [8] > 100 µM | [9] > 100 µM | [10] > 100 µM | [11] > 100 µM | [12] > 100 µM | [13] > 100 µM | [14] > 100 µM | [15] > 100 µM | [16] > 100 µM | [17] > 100 µM | [18] > 100 µM | [19] > 100 µM | [20] > 100 µM | [21] > 100 µM | [22] > 100 µM | [23] > 100 µM | [24] > 100 µM | [25] > 100 µM | [26] > 100 µM | [27] > 100 µM | [28] > 100 µM | [29] > 100 µM | [30] > 100 µM | [31] > 100 µM | [32] 47.2 µM | [33] > 100 µM | [34] > 100 µM | [35] 43.9 µM | [36] > 100 µM | [37] > 100 µM | [38] > 100 µM | [39] > 100 µM | [40] > 100 µM | [41] > 100 µM | [42] > 100 µM | [43] > 100 µM | [44] > 100 µM | [45] > 100 µM | [46] > 100 µM | [47] > 100 µM | [48] > 100 µM | [50] > 100 µM | [51] > 100 µM | [52] > 100 µM | [53] > 100 µM | [54] > 100 µM | [55] > 100 µM | [56] > 100 µM | [57] > 100 µM | [58] > 100 µM | [59] > 100 µM
> 100 µM: [49]

CN(/N=C(\C(=O)O)c1ccccc1)C1=NCCCCN1
> 100 µM: [49]
inactive: [1] > 100 µM | [2] > 100 µM | [3] > 100 µM | [4] 94.6 µM | [5] > 100 µM | [6] > 100 µM | [7] > 100 µM | [8] > 100 µM | [9] > 100 µM | [10] > 100 µM | [11] > 100 µM | [12] > 100 µM | [14] > 100 µM | [15] > 100 µM | [16] > 100 µM | [17] > 100 µM | [19] > 100 µM | [20] > 100 µM | [21] > 100 µM | [22] > 100 µM | [23] > 100 µM | [24] > 100 µM | [25] > 100 µM | [26] > 100 µM | [27] > 100 µM | [28] > 100 µM | [29] > 100 µM | [30] > 100 µM | [31] > 100 µM | [32] > 100 µM | [33] > 100 µM | [34] > 100 µM | [35] > 100 µM | [36] > 100 µM | [37] > 100 µM | [38] > 100 µM | [39] > 100 µM | [40] > 100 µM | [41] > 100 µM | [42] > 100 µM | [43] > 100 µM | [44] > 100 µM | [45] > 100 µM | [46] > 100 µM | [47] > 100 µM | [48] > 100 µM | [50] > 100 µM | [51] > 100 µM | [52] > 100 µM | [53] > 100 µM | [54] > 100 µM | [55] > 100 µM | [56] > 100 µM | [57] > 100 µM | [58] > 100 µM | [59] > 100 µM

C=CC[C@@]1([C@H](C=C)COCc2ccc(OC)cc2)CC[C@]2(C)OC(C)(C)[C@@H](c3ccccc3)N2C1=S
inactive: [1] 57.1 µM | [2] 53.5 µM | [3] 40.7 µM | [5] 37.3 µM | [6] 44.4 µM | [7] > 100 µM | [8] 53 µM | [9] 49.5 µM | [10] 52.4 µM | [11] 22.4 µM | [12] 46.2 µM | [13] 35.2 µM | [14] 37.6 µM | [15] 86.7 µM | [16] 59.4 µM | [17] 52.2 µM | [18] 35.3 µM | [19] 25.2 µM | [20] 40.4 µM | [21] 71.3 µM | [22] 29 µM | [23] 43.1 µM | [24] 27.4 µM | [25] 62.1 µM | [26] 43 µM | [27] 54.5 µM | [28] 23.5 µM | [29] 31.4 µM | [30] 33.5 µM | [31] 34.2 µM | [32] 34.8 µM | [33] 52.7 µM | [34] 95.3 µM | [35] 44.8 µM | [36] > 100 µM | [37] 58.6 µM | [38] 20.9 µM | [39] 40.8 µM | [40] 50 µM | [41] 35.9 µM | [42] > 100 µM | [43] 48.5 µM | [44] 36.9 µM | [45] 73.5 µM | [46] 71.8 µM | [47] 86.5 µM | [48] 60.1 µM | [50] 26.2 µM | [51] 28.2 µM | [52] > 100 µM | [53] 60.8 µM | [54] 31.1 µM | [55] 46.5 µM | [56] 40.7 µM | [57] 30 µM | [58] 19.1 µM | [59] 39.5 µM
81.5 µM: [49]

Cc1ccc2c(O)cc(-c3cccs3)nc2n1
3.78 µM: [49]
inactive: [1] 7.33 µM | [2] 49.8 µM | [3] > 90.6 µM | [4] 4.86 µM | [5] 6.64 µM | [6] 5.08 µM | [7] 8.61 µM | [8] 3.07 µM | [9] 1.47 µM | [10] 9.64 µM | [11] 2.7 µM | [12] > 72.6 µM | [13] 11.7 µM | [14] 15.3 µM | [15] 18.1 µM | [16] 14.3 µM | [17] 11.6 µM | [18] 6.59 µM | [19] 4.72 µM | [20] 7.71 µM | [21] > 54.8 µM | [22] 16.2 µM | [23] 17 µM | [24] 5.81 µM | [25] 19.1 µM | [26] 33 µM | [27] 30.5 µM | [28] > 25.9 µM | [29] 11 µM | [30] 5.05 µM | [31] 12.1 µM | [32] > 100 µM | [33] > 100 µM | [34] 8.49 µM | [35] 12.9 µM | [36] 2.9 µM | [37] 15.1 µM | [38] 4.58 µM | [39] 11.4 µM | [40] > 22.3 µM | [41] 4.81 µM | [42] 15.4 µM | [43] 18.2 µM | [44] 2.76 µM | [45] 2.05 µM | [46] 37.9 µM | [47] 30.3 µM | [48] 10.1 µM | [50] 57 µM | [51] 9.04 µM | [52] 1.58 µM | [53] 9.79 µM | [54] 3.86 µM | [55] 15.3 µM | [56] > 100 µM | [57] 57 µM | [58] 6.98 µM | [59] 8.91 µM
